Test results: patent US7855182B2, “Materials and methods for treatment of cancer” (The Institute of Cancer Research; Royal Cancer Hospital, priority 2004, dated 2010)

What was measured:
GPC5 = GPC5 expression in PC3M tumours grown as subcutaneous implants in treated mice; assay type: in vivo, athymic nude mice; details: preliminary
Description: (§1) To measure the amount of mature mRNA copies of GPC5 and GPC6 the probe was designed across the exon 1-exon 2 boundary and the exon 7-exon 8 boundary respectively. Applied Biosystems' Predeveloped GAPDH (Glyceraldehyde 3-phosphate dehydrogenase) was used as an endogenous control. 25 μL multiplex PCR reactions were run using 2× Universal TaqMan® Master Mix (Applied Biosystems Pt No. 4304437), the concentration of primers and probes shown in Table 1 and 10 ng of DNA or cDNA. These samples were run in triplicate under standard operating conditions on an ABI7700 SDS TaqMan® Machine (Applied Biosystems, CA). […] Thus, the amount of GPC5 and GPC6 was measured relative to either normal genomic DNA in the case of genomic measurements and to normal muscle in the case of expression measurements. Normal genomic DNA was extracted from the blood of a healthy donor, normal muscle cDNA was produced from RNA extracted from a pool of 11 normal muscle biopsies.
Previous gene profiling studies following treatment of K562 cells with WT1 directed ASOs, identified GPC5 as a putative WT1 target gene (manuscript in preparation). Downregulation of GPC5 expression following WT1 antisense treatment and correlating with reduced WT1 expression was confirmed in independent experiments (see FIG. 6). […]

WT1 = WT1 expression in PC3M tumours grown as subcutaneous implants in treated mice; assay type: in vivo, athymic nude mice; details: PC3M prostate cancer subcutaneous implants, mice treated with WT1 antisense; preliminary, data not shown
Description: The primer pair and probe for the quantification of WT1 were designed using the Primer Express program (Applied Biosystems) according to the recommended guidelines and as described above.: WT1—Forward primer, 5′-[…]-3′, reverse primer, 5′, […]-3′, and probe, 5′-[…]-3′. Each assay sample was analyzed in triplicate as above, and multiplexed to facilitate the measurement of gene expression levels relative to GAPDH (in vivo tumour samples) or 18 s ribosomal RNA expression (ribosomal RNA control reagents, Applied Biosystems) (in vitro cell line samples) using the standard curve method.
Previous gene profiling studies following treatment of K562 cells with WT1 directed ASOs, identified GPC5 as a putative WT1 target gene (manuscript in preparation). Downregulation of GPC5 expression following WT1 antisense treatment and correlating with reduced WT1 expression was confirmed in independent experiments (see FIG. 6). […] Direct transcriptional regulation of GPC5 by WT1 is likely since GPC5 has two WT1 consensus binding sites in its promoter region.

HL-60 = experiment: Clonogenic cell survival assay in soft agar, HL-60 control leukaemic cell line not expressing GPC5; assay type: cell-based; details: HL-60 cells, compared to sham-treated
Description: In this assay, cells are grown at low density in suspension in soft agar following treatment. Each colony formed derives from a single surviving cell. 2 ml aliquots of diluted cells were added to polystyrene tubes (Elkay Products (UK) Ltd., Basingstoke, Hampshire, UK) containing 3 ml of medium supplemented with 20% FCS and 0.2% Agar Noble (DIFCO Laboratories, Detroit, Mich.), incubated at 37° C., and colonies containing at least 32 cells counted after 14 days. The number of colonies formed following drug treatment were compared to the number obtained following sham electroporation or a control scrambled oligonucleotide and expressed as % control treatment. In a number of separate experiments, control plating efficiencies ranged from 22-38%, with 800-1600 cells typically plated. In addition, cells from the dilution series (approx 10^3-10^4 cells/ml) were allowed to grow up in suspension culture in parallel for 3-5 days in order to confirm cytotoxicity.
Two active compounds, ISIS 276107 and ISIS 276119, were identified in this primary screen, reducing GPC5 levels to less than 30% control levels and reducing cell survival by greater than 80% (FIG. 3A). […] FIGS. 3B and C show the effects of ISIS 276107 and a control compound (ISIS 276124) at varying concentrations in the same assay.

K562 cells = experiment: Clonogenic cell survival assay in soft agar, K562 cells; assay type: cell-based, human
Description: Antisense or control oligonucleotides were dissolved in PBS and introduced into K562 cells by low voltage electroporation: 40 μl of appropriately diluted ASOs were combined with 360 μl of cell suspension at 2×10^7 cells/ml and cells were electroporated (Bio-Rad Gene Pulser® II Electroporation system with Pulse Controller Plus capacitance extender accessory module, Bio-Rad Laboratories Ltd, Hemel Hempstead, Herts, UK) using 300V and a capacitor value of 1000 μF, and diluted to 10 ml with complete medium. From each sample appropriate duplicate aliquots of cells were serially diluted in complete medium for assessment of cytotoxicity while the remaining cells were incubated at 37° C. for 24 hours ana RNA extracted for quantification of GPC5 and/or WT1 expression levels.
In this assay, cells are grown at low density in suspension in soft agar following treatment. […] 2 ml aliquots of diluted cells were added to polystyrene tubes (Elkay Products (UK) Ltd., Basingstoke, Hampshire, UK) containing 3 ml of medium supplemented with 20% FCS and 0.2% Agar Noble (DIFCO Laboratories, Detroit, Mich.), incubated at 37° C., and colonies containing at least 32 cells counted after 14 days. The number of colonies formed following drug treatment were compared to the number obtained following sham electroporation or a control scrambled oligonucleotide and expressed as % control treatment. […]

GPC5 mRNA = GPC5 mRNA quantification (TaqMan) after electroporation of antisense oligonucleotides into K562 cells; assay type: cell-based, human
Description: as §1, with “biopsies. […]” for “biopsies.”

CC(=O)O[C@@]12CO[C@@H]1C[C@H](O)[C@@]1(C)C(=O)[C@H](O)C3=C(C)[C@@H](OC(=O)[C@H](O)[C@@H](NC(=O)OC(C)(C)C)c4ccccc4)C[C@@](O)([C@@H](OC(=O)c4ccccc4)[C@H]21)C3(C)C [docetaxol]
increase in GPC5 expression (GPC5; PC3M tumours, mice treated with 15 mg/kg): 5 fold

ASWT1exon5: WT1 antisense oligonucleotide targeting WT1 exon 5, GCCCCTTCTGTCCATTTCACT (SEQ ID NO: 26)
decrease in WT1 expression levels (WT1): 50%
reduction in GPC5 expression (GPC5; PC3M prostate cancer subcutaneous implants, mice treated with WT1 antisense, data not shown): 30%

ISIS 276107: 20 mer 2'-MOE chimeric phosphorothioate GPC5 antisense oligonucleotide, CAGCCCCCTGACAGCTCCCA (SEQ ID NO: 23) (all phosphorothioate, sugars by position and methylation of C not given here; 2'-MOE wings flank eight-deoxy central gap)
colony number following treatment (HL-60): no decrease

ISIS 276124: control oligonucleotide, TGGATTTGCTTTACACATCACT (SEQ ID NO: 25)
colony number following treatment (HL-60): no decrease
effect on cell viability / cell survival (K562 cells): not to affect
effect on GPC5 expression / GPC5 levels (GPC5 mRNA): not to affect
